From patent US20080051387A1, “TETRAHYDROPYRIDO[3,4-D]PYRIMIDINES AND RELATED ANALOGUES” (priority 2006, published 2008) come the findings set out here.

The term inhibition denotes the drop in the measured response relative to a control, in per cent.

The target of this experiment is T1, chimeric human H3 receptor (Homo sapiens, UniProt Q9Y5N1).
T1 construct: rat Galpha-i2 (Gnai2, rat); made in house; host or cells: Sf9 insect cells (baculovirus); P2 membranes
The experiment can be described thus: Chimeric human H3 receptor screening GTP binding assay (inhibition of histamine-stimulated GTP-gamma35S binding, Example 8). Format: biochemical. The method, boiled down: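 Compound tested at 4 μM against 1 μM histamine stimulation; 125 pM GTP-gamma35S binding measured by filtration and scintillation after 60 min at room temperature. Membranes from Sf9 cells expressing chimeric human H3 plus G-protein subunits, in Tris pH 7.4/NaCl/MgCl2/GDP buffer; values are % inhibition after nonspecific subtraction.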
Background: GTPγS is a poorly hydrolysed GTP analogue; its binding reports G protein activation.

[1] abbreviates: 1 h, assay of Example 8, symbol "!" in column headed Ki, read-out: percent inhibition of agonist-induced GTP-gammaS binding to H3.
Setting [2] is: symbol ! in Ki, test compound 4 μM, 1 μM histamine, read-out: percent inhibition of agonist-induced GTP-gammaS binding to H3.
Where [3] appears, read: 1 h, assay described in Example 8, symbol "!" in column headed Ki, read-out: Ki ("!": percent inhibition of agonist-induced GTP-gammaS binding to H3).

Molecules are shown by their SMILES. Where two headings read alike, the source gives them in different places.

T1 sequence (Q9Y5N1 with tags, fused parts or gaps): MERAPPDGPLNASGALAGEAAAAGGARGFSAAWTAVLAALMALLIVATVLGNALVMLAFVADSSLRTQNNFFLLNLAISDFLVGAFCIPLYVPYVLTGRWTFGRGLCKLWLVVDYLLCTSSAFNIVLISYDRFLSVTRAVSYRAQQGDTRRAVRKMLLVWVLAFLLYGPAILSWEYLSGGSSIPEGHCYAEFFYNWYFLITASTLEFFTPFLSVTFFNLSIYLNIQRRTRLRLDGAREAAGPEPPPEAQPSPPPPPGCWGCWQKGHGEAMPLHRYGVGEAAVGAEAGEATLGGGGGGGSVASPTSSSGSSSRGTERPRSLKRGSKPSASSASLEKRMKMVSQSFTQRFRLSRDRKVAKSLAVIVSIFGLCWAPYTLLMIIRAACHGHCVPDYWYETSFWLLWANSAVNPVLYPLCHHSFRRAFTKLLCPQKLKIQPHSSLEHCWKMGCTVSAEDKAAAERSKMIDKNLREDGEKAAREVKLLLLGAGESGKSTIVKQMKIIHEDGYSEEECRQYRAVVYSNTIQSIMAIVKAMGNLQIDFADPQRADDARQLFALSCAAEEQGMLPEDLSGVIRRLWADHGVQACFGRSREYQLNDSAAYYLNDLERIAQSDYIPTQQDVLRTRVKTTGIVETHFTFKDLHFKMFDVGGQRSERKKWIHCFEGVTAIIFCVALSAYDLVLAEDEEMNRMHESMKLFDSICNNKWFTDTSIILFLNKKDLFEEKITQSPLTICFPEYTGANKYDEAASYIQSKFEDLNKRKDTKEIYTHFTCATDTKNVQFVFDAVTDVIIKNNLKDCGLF

Regarding `Cc1ccccc1OCC(=O)N1CCc2cnc(N3CCN(C4CCC4)CC3)nc2CC1` [Compound 321, 2-(4-cyclobutylpiperazin-1-yl)-7-[(2-methylphenoxy)acetyl]-6,7,8,9-tetrahydro-5H-pyrimido[4,5-d]azepine], the inhibition at 4 µM under setting [1] was at least 90%.
On to `O=C(c1ccco1)N1CCc2c(ncnc2N2CCN(C3CCC3)CC2)C1` [Compound 32, 4-(4-cyclobutylpiperazin-1-yl)-7-(2-furoyl)-5,6,7,8-tetrahydropyrido[3,4-d]pyrimidine], for which the inhibition at 4 µM under setting [2] is at least 90%.
For the compound `O=C(c1ccc(Cl)cc1Cl)N1CCc2cnc(N3CCN(C4CCC4)CC3)nc2CC1` [Compound 442, 2-(4-cyclobutylpiperazin-1-yl)-7-(2,4-dichlorobenzoyl)-6,7,8,9-tetrahydro-5H-pyrimido[4,5-d]azepine], the inhibition at 4 µM under setting [3] was at least 90%.
For the compound `O=C(c1ccc(Oc2cc(Cl)cc(Cl)c2)o1)N1CCc2cnc(N3CCN(C4CCC4)CC3)nc2CC1` [Compound 472, 2-(4-cyclobutylpiperazin-1-yl)-7-[5-(3,5-dichlorophenoxy)-2-furoyl]-6,7,8,9-tetrahydro-5H-pyrimido[4,5-d]azepine], the inhibition at 4 µM under setting [3] is at least 90%.
For `c1nc2c(c(N3CCN(C4CCC4)CC3)n1)CCN(Cc1ccc(N3CCCC3)nc1)C2` [Compound 96, 4-(4-cyclobutylpiperazin-1-yl)-7-[(6-pyrrolidin-1-ylpyridin-3-yl)methyl]-5,6,7,8-tetrahydropyrido[3,4-d]pyrimidine], under setting [2], the inhibition at 4 µM was at least 90%.
On to `CCCCCCN1CCc2cnc(N3CCN(C4CCC4)CC3)nc2CC1` [Compound 250, 2-(4-cyclobutylpiperazin-1-yl)-7-hexyl-6,7,8,9-tetrahydro-5H-pyrimido[4,5-d]azepine], for which the inhibition at 4 µM under setting [1] is at least 90%.
`CCC(CC)CN1CCc2ncnc(N3CCN(C4CCC4)CC3)c2CC1` [Compound 168, 4-(4-cyclobutylpiperazin-1-yl)-7-(2-ethylbutyl)-6,7,8,9-tetrahydro-5H-pyrimido[4,5-d]azepine]: the inhibition at 4 µM under setting [2] was at least 90%.
Take `O=C(Cc1ccc(OCc2ccccc2)cc1)N1CCc2cnc(N3CCN(C4CCC4)CC3)nc2CC1` [Compound 520, 7-{[4-(benzyloxy)phenyl]acetyl}-2-(4-cyclobutylpiperazin-1-yl)-6,7,8,9-tetrahydro-5H-pyrimido[4,5-d]azepine]: the inhibition at 4 µM under setting [3] was at least 90%.
Same read-out and setting: next, `COc1ccc(Br)c(C(=O)N2CCc3cnc(N4CCN(C5CCC5)CC4)nc3CC2)c1` [Compound 413, 7-(2-bromo-5-methoxybenzoyl)-2-(4-cyclobutylpiperazin-1-yl)-6,7,8,9-tetrahydro-5H-pyrimido[4,5-d]azepine]: at least 90%.
`O=C(c1ccc2ccccc2c1)N1CCc2cnc(N3CCN(C4CCC4)CC3)nc2CC1` [Compound 361, 2-(4-cyclobutylpiperazin-1-yl)-7-(2-naphthoyl)-6,7,8,9-tetrahydro-5H-pyrimido[4,5-d]azepine]: the inhibition at 4 µM under setting [1] was at least 90%.
Turning to `O=C(c1sccc1Br)N1CCc2cnc(N3CCN(C4CCC4)CC3)nc2CC1` [Compound 450, 7-[(3-bromo-2-thienyl)carbonyl]-2-(4-cyclobutylpiperazin-1-yl)-6,7,8,9-tetrahydro-5H-pyrimido[4,5-d]azepine], under setting [3], the inhibition at 4 µM was at least 90%.
Regarding `CCOc1ccccc1CC(=O)N1CCc2cnc(N3CCN(C4CCC4)CC3)nc2CC1` [Compound 307, 2-(4-cyclobutylpiperazin-1-yl)-7-[(2-ethoxyphenyl)acetyl]-6,7,8,9-tetrahydro-5H-pyrimido[4,5-d]azepine], under setting [1], the inhibition at 4 µM is at least 90%.
`O=C(c1ccccc1F)N1CCc2c(ncnc2N2CCN(C3CCC3)CC2)C1` [Compound 31, 4-(4-cyclobutylpiperazin-1-yl)-7-(2-fluorobenzoyl)-5,6,7,8-tetrahydropyrido[3,4-d]pyrimidine]: the inhibition at 4 µM under setting [2] was at least 90%.
As to `CC(Oc1ccc(OC(F)(F)F)cc1)C(=O)N1CCc2cnc(N3CCN(C4CCC4)CC3)nc2CC1` (centres unmarked) [Compound 343, 2-(4-cyclobutylpiperazin-1-yl)-7-{2-[4-(trifluoromethoxy)phenoxy]propanoyl}-6,7,8,9-tetrahydro-5H-pyrimido[4,5-d]azepine], under setting [1], the inhibition at 4 µM is at least 90%.
As for `c1ccc(CN2CCc3c(ncnc3N3CCC(N4CCCCC4)CC3)C2)cc1` [Compound 17, 1′-(7-benzyl-5,6,7,8-tetrahydropyrido[3,4-d]pyrimidin-4-yl)-1,4′-bipiperidine], the inhibition at 4 µM under setting [2] is at least 90%.
With `COc1cc(/C=C/C(=O)N2CCc3cnc(N4CCN(C5CCC5)CC4)nc3CC2)cc(OC)c1OC` [Compound 566, 2-(4-cyclobutylpiperazin-1-yl)-7-[(2E)-3-(3,4,5-trimethoxyphenyl)prop-2-enoyl]-6,7,8,9-tetrahydro-5H-pyrimido[4,5-d]azepine], the inhibition at 4 µM under setting [3] was at least 90%.
On to `CCSc1ccc(C(=O)N2CCc3cnc(N4CCN(C5CCC5)CC4)nc3CC2)cc1` [Compound 370, 2-(4-cyclobutylpiperazin-1-yl)-7-[4-(ethylthio)benzoyl]-6,7,8,9-tetrahydro-5H-pyrimido[4,5-d]azepine], for which the inhibition at 4 µM under setting [1] is at least 90%.
As to `O=C(c1cccc(Oc2ccccc2)c1)N1CCc2cnc(N3CCN(C4CCC4)CC3)nc2CC1` [Compound 374, 2-(4-cyclobutylpiperazin-1-yl)-7-(3-phenoxybenzoyl)-6,7,8,9-tetrahydro-5H-pyrimido[4,5-d]azepine], the inhibition at 4 µM under setting [1] is at least 90%.
With `O=C(c1ccccn1)N1CCc2c(ncnc2N2CCN(C3CCC3)CC2)C1` [Compound 35, 4-(4-cyclobutylpiperazin-1-yl)-7-(pyridin-2-ylcarbonyl)-5,6,7,8-tetrahydropyrido[3,4-d]pyrimidine], the inhibition at 4 µM under setting [2] was at least 90%.
With `COc1ccc(Br)cc1/C=C/C(=O)N1CCc2cnc(N3CCN(C4CCC4)CC3)nc2CC1` [Compound 576, 7-[(2E)-3-(5-bromo-2-methoxyphenyl)prop-2-enoyl]-2-(4-cyclobutylpiperazin-1-yl)-6,7,8,9-tetrahydro-5H-pyrimido[4,5-d]azepine], the inhibition at 4 µM under setting [3] was at least 90%.
Take `CCC(C(=O)N1CCc2cnc(N3CCN(C4CCC4)CC3)nc2CC1)c1ccc(OC)cc1` (centres unmarked) [Compound 352, 2-(4-cyclobutylpiperazin-1-yl)-7-[2-(4-methoxyphenyl)butanoyl]-6,7,8,9-tetrahydro-5H-pyrimido[4,5-d]azepine]: the inhibition at 4 µM under setting [1] was at least 90%.
Still for that read-out and setting: next, `CC(Oc1ccc(Cl)cc1)C(=O)N1CCc2cnc(N3CCN(C4CCC4)CC3)nc2CC1` (centres unmarked) [Compound 345, 7-[2-(4-chlorophenoxy)propanoyl]-2-(4-cyclobutylpiperazin-1-yl)-6,7,8,9-tetrahydro-5H-pyrimido[4,5-d]azepine]: at least 90%.
Same read-out and setting: for `COc1cc(CC(=O)N2CCc3cnc(N4CCN(C5CCC5)CC4)nc3CC2)cc(OC)c1` [Compound 280, 2-(4-cyclobutylpiperazin-1-yl)-7-[(3,5-dimethoxyphenyl)acetyl]-6,7,8,9-tetrahydro-5H-pyrimido[4,5-d]azepine] the value was at least 90%.
As to `CCC(C)CN1CCc2ncnc(N3CCN(C4CCC4)CC3)c2CC1` (centres unmarked) [Compound 167, 4-(4-cyclobutylpiperazin-1-yl)-7-(2-methylbutyl)-6,7,8,9-tetrahydro-5H-pyrimido[4,5-d]azepine], under setting [2], the inhibition at 4 µM is at least 90%.
For `CC(Oc1ccccc1)C(=O)N1CCc2cnc(N3CCN(C4CCC4)CC3)nc2CC1` (centres unmarked) [Compound 339, 2-(4-cyclobutylpiperazin-1-yl)-7-(2-phenoxypropanoyl)-6,7,8,9-tetrahydro-5H-pyrimido[4,5-d]azepine], under setting [1], the inhibition at 4 µM is at least 90%.
Take `O=C(c1sc2ccccc2c1Cl)N1CCc2cnc(N3CCN(C4CCC4)CC3)nc2CC1` [Compound 457, 7-[(3-chloro-1-benzothien-2-yl)carbonyl]-2-(4-cyclobutylpiperazin-1-yl)-6,7,8,9-tetrahydro-5H-pyrimido[4,5-d]azepine]: the inhibition at 4 µM under setting [3] was at least 90%.
Still for that read-out and setting: next, `O=C(/C=C/c1ccc(-c2ccccc2)cc1)N1CCc2cnc(N3CCN(C4CCC4)CC3)nc2CC1` [Compound 556, 7-[(2E)-3-biphenyl-4-ylprop-2-enoyl]-2-(4-cyclobutylpiperazin-1-yl)-6,7,8,9-tetrahydro-5H-pyrimido[4,5-d]azepine]: at least 90%.
For `c1nc(N2CCN(C3CCC3)CC2)nc2c1CCN(CC1CCOC1)CC2` (centres unmarked) [Compound 256, 2-(4-cyclobutylpiperazin-1-yl)-7-(tetrahydrofuran-3-ylmethyl)-6,7,8,9-tetrahydro-5H-pyrimido[4,5-d]azepine], under setting [1], the inhibition at 4 µM is at least 90%.
Same read-out and setting: for `Cc1cc(C)cc(C(=O)N2CCc3cnc(N4CCN(C5CCC5)CC4)nc3CC2)c1` [Compound 359, 2-(4-cyclobutylpiperazin-1-yl)-7-(3,5-dimethylbenzoyl)-6,7,8,9-tetrahydro-5H-pyrimido[4,5-d]azepine] the value was at least 90%.
Take `Cc1cc(C(=O)N2CCc3cnc(N4CCN(C5CCC5)CC4)nc3CC2)oc1C` [Compound 468, 2-(4-cyclobutylpiperazin-1-yl)-7-(4,5-dimethyl-2-furoyl)-6,7,8,9-tetrahydro-5H-pyrimido[4,5-d]azepine]: under setting [3], the inhibition at 4 µM was at least 90%.
As to `CCCOc1ccc(C(=O)N2CCc3cnc(N4CCN(C5CCC5)CC4)nc3CC2)cc1` [Compound 379, 2-(4-cyclobutylpiperazin-1-yl)-7-(4-propoxybenzoyl)-6,7,8,9-tetrahydro-5H-pyrimido[4,5-d]azepine], the inhibition at 4 µM under setting [1] is at least 90%.
On to `Cc1cccc(C)c1C(=O)N1CCc2cnc(N3CCN(C4CCC4)CC3)nc2CC1` [Compound 406, 2-(4-cyclobutylpiperazin-1-yl)-7-(2,6-dimethylbenzoyl)-6,7,8,9-tetrahydro-5H-pyrimido[4,5-d]azepine], for which the inhibition at 4 µM under setting [3] is at least 90%.
